From patent US9630963B2, “Quinolone derivatives as fibroblast growth factor inhibitors” (Principia Biopharma, Inc., priority 2013, dated 2017)
Structures can show the parent of a compound that is named as a salt.

Experiments:
[1] = biological target: human recombinant FGFR1 (Homo sapiens, UniProt P11362); assay: FGFR family enzymatic activity assay (Caliper-based kinase assay), FGFR1; assay type: biochemical; settings: FGFR1 0.5 nM, ATP 100 μM, peptide substrate 1 μM, room temperature 3 h
Description: (§1) A Caliper-based kinase assay (Caliper Life Sciences, Hopkinton, Mass.) was used to measure inhibition of FGFR family (FGFR1, FGFR2, FGFR3, FGFR4) kinase activity of a compound of Formula (I′) or (I). […] This value is presented as the IC50.

[2] = biological target: human recombinant FGFR2 (Homo sapiens, UniProt P21802); assay: FGFR family enzymatic activity assay (Caliper-based kinase assay), FGFR2; assay type: biochemical; settings: FGFR2 0.1 nM, ATP 75 μM, peptide substrate 1 μM, room temperature 3 h
Description: as §1

[3] = biological target: human recombinant FGFR3 (Homo sapiens, UniProt P22607); assay: FGFR family enzymatic activity assay (Caliper-based kinase assay), FGFR3; assay type: biochemical; settings: FGFR3 0.9 nM, ATP 120 μM, peptide substrate 1 μM, room temperature 3 h
Description: as §1

[4] = biological target: human recombinant FGFR4 (Homo sapiens, UniProt P22455); assay: FGFR family enzymatic activity assay (Caliper-based kinase assay), FGFR4; assay type: biochemical; settings: FGFR4 2 nM, ATP 250 μM, peptide substrate 1 μM, room temperature 3 h
Description: as §1

[5] = system: SNU-16 cells; assay: Inhibition of FGFR2-dependent cell growth (Cell-titer Glo); assay type: cell-based; settings: Homo sapiens, SNU16 cells, 72 hrs incubation, cell viability by Cell-titer Glo
Procedure: The cell-based effects of FGFR inhibitors were determined by measuring inhibition of FGFR-dependent cell line growth. […] Percent inhibition of cell growth was calculated as a percentage of untreated cell viability. The percent inhibition was plotted as a function of log compound concentration. The IC50 was then calculated for each compound using Prism software from GraphPad.

Sequence of human recombinant FGFR1 (P11362 22-822): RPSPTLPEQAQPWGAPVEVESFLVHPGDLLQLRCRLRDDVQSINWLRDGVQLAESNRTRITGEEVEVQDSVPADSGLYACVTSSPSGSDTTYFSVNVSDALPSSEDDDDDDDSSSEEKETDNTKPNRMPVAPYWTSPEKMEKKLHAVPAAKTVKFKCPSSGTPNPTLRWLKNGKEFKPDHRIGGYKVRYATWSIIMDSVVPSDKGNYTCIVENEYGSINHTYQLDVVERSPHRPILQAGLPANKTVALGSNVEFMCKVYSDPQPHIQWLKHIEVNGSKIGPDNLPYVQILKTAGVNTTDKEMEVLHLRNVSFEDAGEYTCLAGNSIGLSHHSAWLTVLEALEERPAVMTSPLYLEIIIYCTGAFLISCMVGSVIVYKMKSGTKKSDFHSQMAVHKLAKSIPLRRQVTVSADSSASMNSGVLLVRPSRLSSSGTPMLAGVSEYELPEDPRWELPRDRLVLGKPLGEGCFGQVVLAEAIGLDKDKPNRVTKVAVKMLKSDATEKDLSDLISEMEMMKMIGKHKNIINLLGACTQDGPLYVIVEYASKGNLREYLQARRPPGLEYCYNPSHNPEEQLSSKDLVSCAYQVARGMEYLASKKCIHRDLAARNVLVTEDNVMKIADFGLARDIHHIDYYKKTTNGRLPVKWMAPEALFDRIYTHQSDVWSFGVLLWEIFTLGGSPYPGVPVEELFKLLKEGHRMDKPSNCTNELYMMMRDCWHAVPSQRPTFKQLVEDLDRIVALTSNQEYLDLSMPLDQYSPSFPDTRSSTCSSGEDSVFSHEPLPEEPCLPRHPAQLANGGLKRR
Sequence of human recombinant FGFR2 (P21802 22-821): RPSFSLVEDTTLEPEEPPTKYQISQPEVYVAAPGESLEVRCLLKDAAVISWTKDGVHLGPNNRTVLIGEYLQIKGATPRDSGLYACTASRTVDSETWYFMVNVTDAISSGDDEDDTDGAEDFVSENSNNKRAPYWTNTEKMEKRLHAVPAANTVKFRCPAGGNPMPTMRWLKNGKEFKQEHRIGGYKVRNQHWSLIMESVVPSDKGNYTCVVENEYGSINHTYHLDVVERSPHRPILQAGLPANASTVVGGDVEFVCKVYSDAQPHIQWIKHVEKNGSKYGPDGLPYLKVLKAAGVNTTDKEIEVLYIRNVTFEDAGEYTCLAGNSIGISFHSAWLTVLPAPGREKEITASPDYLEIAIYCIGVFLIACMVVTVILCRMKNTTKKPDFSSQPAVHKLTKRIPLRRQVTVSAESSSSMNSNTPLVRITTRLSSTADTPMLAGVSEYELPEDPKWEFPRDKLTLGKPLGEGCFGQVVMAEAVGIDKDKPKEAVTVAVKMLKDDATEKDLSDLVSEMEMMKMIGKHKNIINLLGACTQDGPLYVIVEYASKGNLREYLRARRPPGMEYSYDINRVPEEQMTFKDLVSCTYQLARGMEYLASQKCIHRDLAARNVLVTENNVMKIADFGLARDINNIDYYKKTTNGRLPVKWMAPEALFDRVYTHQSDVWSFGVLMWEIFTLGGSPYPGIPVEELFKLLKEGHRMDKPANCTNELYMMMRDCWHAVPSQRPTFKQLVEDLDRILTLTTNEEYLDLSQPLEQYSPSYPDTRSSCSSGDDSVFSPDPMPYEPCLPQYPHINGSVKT
Sequence of human recombinant FGFR3 (P22607 23-806): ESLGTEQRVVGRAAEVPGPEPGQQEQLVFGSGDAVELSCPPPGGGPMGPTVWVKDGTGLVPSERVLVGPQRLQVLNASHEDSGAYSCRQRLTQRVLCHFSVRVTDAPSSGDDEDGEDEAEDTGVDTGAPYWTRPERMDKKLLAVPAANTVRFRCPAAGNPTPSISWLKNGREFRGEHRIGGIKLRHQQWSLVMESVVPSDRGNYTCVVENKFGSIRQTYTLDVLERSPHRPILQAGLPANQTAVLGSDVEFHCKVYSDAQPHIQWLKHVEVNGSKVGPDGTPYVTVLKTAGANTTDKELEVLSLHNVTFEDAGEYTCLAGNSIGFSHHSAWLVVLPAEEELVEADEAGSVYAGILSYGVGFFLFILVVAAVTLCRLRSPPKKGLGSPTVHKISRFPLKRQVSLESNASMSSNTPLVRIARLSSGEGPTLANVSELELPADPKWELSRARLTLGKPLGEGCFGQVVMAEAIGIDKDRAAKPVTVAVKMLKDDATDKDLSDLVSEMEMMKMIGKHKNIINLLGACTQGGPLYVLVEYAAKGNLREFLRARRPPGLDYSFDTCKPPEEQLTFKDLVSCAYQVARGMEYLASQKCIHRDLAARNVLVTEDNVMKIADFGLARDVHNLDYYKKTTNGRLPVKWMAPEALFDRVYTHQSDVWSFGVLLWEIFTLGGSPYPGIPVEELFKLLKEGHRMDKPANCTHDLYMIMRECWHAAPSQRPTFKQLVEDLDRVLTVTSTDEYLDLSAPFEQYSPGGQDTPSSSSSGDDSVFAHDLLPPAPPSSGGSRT
Sequence of human recombinant FGFR4 (P22455 22-802): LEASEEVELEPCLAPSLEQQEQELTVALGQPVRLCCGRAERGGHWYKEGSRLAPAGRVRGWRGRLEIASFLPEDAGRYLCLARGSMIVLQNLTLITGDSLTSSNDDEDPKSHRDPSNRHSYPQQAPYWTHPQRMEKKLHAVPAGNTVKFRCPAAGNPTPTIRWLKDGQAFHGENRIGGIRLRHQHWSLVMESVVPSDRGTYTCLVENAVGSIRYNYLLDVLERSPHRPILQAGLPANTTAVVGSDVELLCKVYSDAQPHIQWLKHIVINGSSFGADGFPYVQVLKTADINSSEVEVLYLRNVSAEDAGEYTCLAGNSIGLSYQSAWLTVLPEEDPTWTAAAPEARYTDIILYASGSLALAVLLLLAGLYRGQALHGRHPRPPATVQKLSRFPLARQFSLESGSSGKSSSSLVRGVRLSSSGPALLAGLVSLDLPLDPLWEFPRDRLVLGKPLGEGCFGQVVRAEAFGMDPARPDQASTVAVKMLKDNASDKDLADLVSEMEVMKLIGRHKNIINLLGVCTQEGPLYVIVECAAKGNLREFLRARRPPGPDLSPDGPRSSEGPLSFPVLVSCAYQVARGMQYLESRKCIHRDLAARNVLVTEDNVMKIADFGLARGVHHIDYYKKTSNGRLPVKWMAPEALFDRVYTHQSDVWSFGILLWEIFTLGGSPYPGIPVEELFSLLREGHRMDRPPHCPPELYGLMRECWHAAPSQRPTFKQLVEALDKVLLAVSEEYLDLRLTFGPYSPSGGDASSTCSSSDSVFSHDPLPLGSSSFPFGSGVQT

Row | Compound | IC50 [1] [nM] | IC50 [2] [nM] | IC50 [3] [nM] | IC50 [4] [nM] | IC50 [5] [nM]
1 | C=CC(=O)Nc1cccc(Cn2c(=O)c(-c3c(Cl)c(OC)cc(OC)c3Cl)cc3cnc(NCCCCN(CC)CC)nc32)c1 [Example 6, N-(3-[[6-(2,6-dichloro-3,5-dimethoxyphenyl)-2-[[4-(diethylamino)butyl]-amino]-7-oxo-7H,8H-pyrido[2,3-d]pyrimidin-8-yl]methyl]phenyl)acrylamide] | 1.3 | 1 | 3.1 | 33.2 | 
2 | C=CC(=O)N1CCCC(CCn2c(=O)c(-c3ccccc3Cl)cc3cnc(NCCCCN(CC)CC)nc32)C1 (stereo not shown) [Example 2, 8-(2-(1-acryloylpiperidin-3-yl)ethyl)-6-(2-chlorophenyl)-2-(4-(diethylamino)-butylamino)pyrido[2,3-d]pyrimidin-7(8H)-one] | 840 | 701 | 1040 | > 5000 | 
3 | C=CC(=O)Nc1ccc(CCn2c(=O)c(-c3cc(OC)cc(OC)c3Cl)cc3cnc(NCCN4CCOCC4)nc32)nc1 [Example 39, N-(6-(2-(6-(2-chloro-3,5-dimethoxyphenyl)-2-((2-morpholinoethyl)amino)-7-oxopyrido[2,3-d]pyrimidin-8(7H)-yl)ethyl)pyridin-3-yl)acrylamide] | 0.9 | 5.5 | 5.4 | 42 | 1.2
4 | C=CC(=O)Nc1ccc(CCn2c(=O)c(-c3c(Cl)c(OC)cc(OC)c3Cl)cc3cnc(NCCN4CCOCC4)nc32)cc1 [Example 44, N-(4-(2-(6-(2,6-dichloro-3,5-dimethoxyphenyl)-2-((2-morpholinoethyl)amino)-7-oxopyrido[2,3-d]pyrimidin-8(7H)-yl)ethyl)phenyl)acrylamide] | 1 | 2.5 | 4 | 14 | 3.1
5 | C=CC(=O)Nc1ccc(CCn2c(=O)c(-c3cc(OC)cc(OC)c3F)cc3cnc(NCCN4CCOCC4)nc32)cc1 [Example 43, N-(4-(2-(6-(2-fluoro-3,5-dimethoxyphenyl)-2-((2-morpholinoethyl)amino)-7-oxopyrido[2,3-d]pyrimidin-8(7H)-yl)ethyl)phenyl)acrylamide] | 2 | 2.6 | 9.6 | 71 | 3.7
6 | C=CC(=O)Nc1ccc(CCn2c(=O)c(-c3c(Cl)c(OC)cc(OC)c3Cl)cc3cnc(NCCCCN(CC)CC)nc32)cc1 [Example 5, N-(4-(2-(6-(2,6-dichloro-3,5-dimethoxyphenyl)-2-(4-(diethylamino)butylamino)-7-oxopyrido[2,3-d]pyrimidin-8(7H)-yl)ethyl)phenyl)acrylamide hydrochloride] | 1.1 | 1.5 | 5.5 | 32.4 | 5.6
7 | C=CC(=O)Nc1ccc(CCn2c(=O)c(-c3c(Cl)c(OC)cc(OC)c3Cl)cc3cnc(NC)nc32)nc1 [Example 38, N-(6-(2-(6-(2,6-dichloro-3,5-dimethoxyphenyl)-2-(methylamino)-7-oxopyrido[2,3-d]pyrimidin-8(7H)-yl)ethyl)pyridin-3-yl)acrylamide] | 1.2 | 2 | 3.3 | 6.3 | 2.5
8 | C=CC(=O)Nc1ccc(CCn2c(=O)c(-c3c(Cl)c(OC)cc(OC)c3Cl)cc3cnc(NC)nc32)cc1 [Example 4, N-(4-(2-(6-(2,6-dichloro-3,5-dimethoxyphenyl)-2-(methylamino)-7-oxopyrido[2,3-d]pyrimidin-8(7H)-yl)ethyl)phenyl)acrylamide] | 1.3 | 1.6 | 3.1 | 10.4 | 1.4

Now from value to compound:

Row | IC50 [1] [nM] | IC50 [2] [nM] | IC50 [3] [nM] | IC50 [4] [nM] | IC50 [5] [nM] | Compound
9 | 0.7 | 1.6 | 8.1 | 53.8 | 3.1 | C=CC(=O)Nc1ccc(CCn2c(=O)c(-c3cc(OC)cc(OC)c3Cl)cc3cnc(NCCN4CCN(CC(C)(C)O)CC4)nc32)cc1 [Example 68, N-(4-(2-(6-(2-chloro-3,5-dimethoxyphenyl)-2-((2-(4-(2-hydroxy-2-methylpropyl)-piperazin-1-yl)ethyl)amino)-7-oxopyrido[2,3-d]pyrimidin-8(7H)-yl)ethyl)phenyl)acrylamide]
10 | 0.7 | 0.9 | 3.2 | 9.7 | 3.1 | C=CC(=O)Nc1ccc(CCn2c(=O)c(-c3c(Cl)c(OC)cc(OC)c3Cl)cc3cnc(NCC(O)CO)nc32)cc1 (stereo not shown) [Example 63, N-(4-(2-(6-(2,6-dichloro-3,5-dimethoxyphenyl)-2-((2,3-dihydroxypropyl)amino)-7-oxopyrido[2,3-d]pyrimidin-8(7H)-yl)ethyl)phenyl)acrylamide]
11 | 0.8 | 1.6 | 6.7 | 9.6 | 7.4 | C=CC(=O)Nc1ccc(CCn2c(=O)c(-c3c(Cl)c(OC)cc(OC)c3Cl)cc3cnc(NC(CO)CO)nc32)cc1 [Example 76, N-(4-(2-(6-(2,6-dichloro-3,5-dimethoxyphenyl)-2-((1,3-dihydroxypropan-2-yl)-amino)-7-oxopyrido[2,3-d]pyrimidin-8(7H)-yl)ethyl)phenyl)acrylamide]
12 | 1.8 | 4.2 | 5.4 | 12.8 | 2.4 | C=CC(=O)Nc1ccc(CCn2c(=O)c(-c3c(Cl)c(OC)cc(OC)c3Cl)cc3cnc(NCCN4CCOCC4)nc32)nc1 [Example 51, N-(6-(2-(6-(2,6-dichloro-3,5-dimethoxyphenyl)-2-(2-morpholinoethylamino)-7-oxopyrido[2,3-d]pyrimidin-8(7H)-yl)ethyl)pyridin-3-yl)acrylamide]
13 | 0.7 | 2 | 9.9 | 54.1 | 2.1 | C=CC(=O)Nc1ccc(CCn2c(=O)c(-c3c(Cl)c(OC)cc(OC)c3Cl)cc3cnc(NC4CCN(C)CC4)nc32)cc1 [Example 62, N-(4-(2-(6-(2,6-dichloro-3,5-dimethoxyphenyl)-2-((1-methylpiperidin-4-yl)amino)-7-oxopyrido[2,3-d]pyrimidin-8(7H)-yl)ethyl)phenyl)acrylamide]
14 | 0.6 | 1.7 | 4.6 | 13.8 | 3 | C=CC(=O)Nc1ccc(CCn2c(=O)c(-c3c(Cl)c(OC)cc(OC)c3Cl)cc3cnc(NCCO)nc32)cc1 [Example 65, N-(4-(2-(6-(2,6-dichloro-3,5-dimethoxyphenyl)-2-((2-hydroxyethyl)amino)-7-oxopyrido[2,3-d]pyrimidin-8(7H)-yl)ethyl)phenyl)acrylamide]
15 | 1 | 1.3 | 5.9 | 95.8 | 4.9 | C=CC(=O)Nc1ccc(CCn2c(=O)c(-c3cc(OC)cc(OC)c3Cl)cc3cnc(NCC4CCN(C)CC4)nc32)cc1 [Example 71, N-(4-(2-(6-(2-chloro-3,5-dimethoxyphenyl)-2-(((1-methylpiperidin-4-yl)methyl)-amino)-7-oxopyrido[2,3-d]pyrimidin-8(7H)-yl)ethyl)phenyl)acrylamide]
16 | 0.4 | 0.6 | 3.3 | 14.7 | 2.2 | C=CC(=O)Nc1ccc(CCn2c(=O)c(-c3c(Cl)c(OC)cc(OC)c3Cl)cc3cnc(NCC4CCN(C)CC4)nc32)cc1 [Example 75, N-(4-(2-(6-(2,6-dichloro-3,5-dimethoxyphenyl)-2-(((1-methylpiperidin-4-yl)methyl)-amino)-7-oxopyrido[2,3-d]pyrimidin-8(7H)-yl)ethyl)phenyl)acrylamide]
17 | 1.5 | 3.4 | 9.2 | 64.4 | 6.8 | C=CC(=O)Nc1ccc(CCn2c(=O)c(-c3cc(OC)cc(OC)c3Cl)cc3cnc(NC(C)(C)CO)nc32)cc1 [Example 61, N-(4-(2-(6-(2-chloro-3,5-dimethoxyphenyl)-2-((1-hydroxy-2-methylpropan-2-yl)-amino)-7-oxopyrido[2,3-d]pyrimidin-8(7H)-yl)ethyl)phenyl)acrylamide]
18 | 0.5 | 2.2 | 5.5 | 19.9 | 3.2 | C=CC(=O)Nc1ccc(CCn2c(=O)c(-c3c(Cl)c(OC)cc(OC)c3Cl)cc3cnc(NCC(C)(C)O)nc32)cc1 [Example 64, N-(4-(2-(6-(2,6-dichloro-3,5-dimethoxyphenyl)-2-((2-hydroxy-2-methylpropyl)-amino)-7-oxopyrido[2,3-d]pyrimidin-8(7H)-yl)ethyl)phenyl)acrylamide]
